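Where inhibition never reached the appropriate level, the endpoint shown equals the highest concentration tested. Otherwise, values were interpolated linearly from a five-concentration, 48-hour dose response in 96-well plates. Definition used: TGI = concentration required for complete inhibition of growth.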
Legend:
Test in all cases: growth of human tumour cells (NCI), 48 h
NCI-H522 lung = test system: NCI-H522 lung
RPMI-8226 leukemia = test system: RPMI-8226 leukemia
PC-3 prostate = test system: PC-3 prostate
UACC-62 melanoma = test system: UACC-62 melanoma
OVCAR-3 ovarian = test system: OVCAR-3 ovarian
M14 melanoma = test system: M14 melanoma
SK-MEL-5 melanoma = test system: SK-MEL-5 melanoma
MDA-MB-435 = test system: MDA-MB-435
OVCAR-8 ovarian = test system: OVCAR-8 ovarian
KM12 colon = test system: KM12 colon
NCI-H226 lung = test system: NCI-H226 lung
UO-31 renal = test system: UO-31 renal
SK-OV-3 ovarian = test system: SK-OV-3 ovarian
DU-145 prostate = test system: DU-145 prostate
NCI-H23 lung = test system: NCI-H23 lung
SN12C renal = test system: SN12C renal
HS 578T breast = test system: HS 578T breast
BT-549 breast = test system: BT-549 breast

| Compound | TGI (NCI-H522 lung) [µM] | TGI (RPMI-8226 leukemia) [µM] | TGI (PC-3 prostate) [µM] | TGI (UACC-62 melanoma) [µM] | TGI (OVCAR-3 ovarian) [µM] | TGI (M14 melanoma) [µM] | TGI (SK-MEL-5 melanoma) [µM] | TGI (MDA-MB-435) [µM] | TGI (OVCAR-8 ovarian) [µM] | TGI (KM12 colon) [µM] | TGI (NCI-H226 lung) [µM] | TGI (UO-31 renal) [µM] | TGI (SK-OV-3 ovarian) [µM] | TGI (DU-145 prostate) [µM] | TGI (NCI-H23 lung) [µM] | TGI (SN12C renal) [µM] | TGI (HS 578T breast) [µM] | TGI (BT-549 breast) [µM] |
| --- | --- | --- | --- | --- | --- | --- | --- | --- | --- | --- | --- | --- | --- | --- | --- | --- | --- | --- |
| CN(C)C(c1ccccc1)C1COC2Cc3ccccc3C1O2 (stereo unspecified) | > 100 | > 100 | > 100 | > 100 | > 100 | > 100 | > 100 | > 100 | > 100 | > 100 | > 100 | > 100 | > 100 | > 100 | > 100 | > 100 | > 100 | – |
| CN1C(=O)C2(C=CC(O)CC2)c2ccccc21 (stereo unspecified) | > 100 | > 100 | > 100 | > 100 | > 100 | > 100 | > 100 | > 100 | > 100 | > 100 | > 100 | > 100 | > 100 | > 100 | > 100 | > 100 | – | – |
| O=C(Nc1ccc2[nH]c(C(=O)N3CC(CCl)c4c3cc([N+](=O)[O-])c3ccccc43)cc2c1)Nc1ccc2[nH]c(C(=O)N3CC(CCl)c4c3cc([N+](=O)[O-])c3ccccc43)cc2c1 (stereo unspecified) | > 100 | > 100 | > 100 | > 100 | > 100 | > 100 | > 100 | > 100 | – | > 100 | > 100 | 41.1 | > 100 | > 100 | > 100 | > 100 | – | > 100 |
| O=C(CN1CCOCC1)c1ccc2c(c1)oc(=O)n2CCN1CCOCC1 | – | > 100 | > 100 | – | > 100 | > 100 | > 100 | > 100 | > 100 | > 100 | > 100 | – | > 100 | > 100 | – | > 100 | > 100 | – |
| O=c1[nH]nc(-c2ccccc2)n1/N=C/c1cccs1 | – | > 100 | > 100 | > 100 | > 100 | > 100 | – | 79.5 | > 100 | > 100 | > 100 | > 100 | > 100 | > 100 | > 100 | > 100 | > 100 | 95.8 |
| CC(C)N=C(N)NC#N | > 100 | > 100 | – | > 100 | > 100 | > 100 | – | – | > 100 | > 100 | > 100 | > 100 | > 100 | – | – | > 100 | – | – |
| CC(=O)NC1(c2cc3ccccc3s2)CCCCCC1 | 39.1 | – | 60.8 | > 100 | 62.8 | > 100 | 66.7 | > 100 | > 100 | > 100 | > 100 | > 100 | > 100 | > 100 | > 100 | > 100 | – | > 100 |
| C/C(CC(O)(/C=N/O)c1ccccc1)=N/O (stereo unspecified) | > 100 | > 100 | > 100 | – | > 100 | > 100 | > 100 | > 100 | > 100 | > 100 | > 100 | > 100 | > 100 | – | > 100 | > 100 | > 100 | > 100 |
| Cc1ccc(/C(O)=C/C(=O)C(=O)NC23CC4CC(CC(C4)C2)C3)cc1 | – | > 10 | > 10 | > 10 | – | > 10 | > 10 | > 10 | > 10 | > 10 | – | – | > 10 | > 10 | > 10 | > 10 | – | – |
| CC(C)NC(=O)OCc1c(CO)c2c(n1C)-c1ccccc1CC2 | 31.3 | 49.4 | – | 36.6 | 66.9 | – | 71 | – | 57.6 | > 86.8 | > 64.5 | 71.4 | > 100 | – | > 65.1 | 59.8 | – | – |
| COc1cc(-c2cc(=O)c3c(O)c(CC=C(C)C)c(O)cc3o2)ccc1O | – | 36.3 | > 50 | > 50 | > 50 | 39.7 | > 50 | 22 | > 50 | – | > 50 | > 50 | > 50 | > 50 | > 50 | > 50 | > 50 | > 50 |
| CSc1nc(NC2OC(COC(C)=O)C(OC(C)=O)C(OC(C)=O)C2OC(C)=O)c2c(n1)OCC2=O (stereo unspecified) | > 100 | > 100 | – | > 100 | > 100 | > 100 | > 100 | – | > 100 | > 100 | > 100 | > 100 | > 100 | – | > 100 | > 100 | – | – |
| CC1SCc2nc3ccccc3n21 (stereo unspecified) | > 100 | > 100 | > 100 | > 100 | > 100 | > 100 | > 100 | > 100 | > 100 | > 100 | > 100 | > 100 | > 100 | > 100 | > 100 | > 100 | > 100 | – |
| Cc1c(N2CCN(C)CC2)nc2ccc(Cl)cc2c1-c1ccccc1 | 38.6 | 44.9 | – | 30.3 | 74.3 | 34.9 | 28.8 | – | 31.8 | 28.5 | – | 36.1 | > 100 | – | 55.4 | 29 | – | – |
| CC(=O)Nc1ccc2c3c(cc(O)c2c1)N(C(=O)CCCCCCC(=O)N1CC(CCl)c2c1cc(O)c1cc(NC(C)=O)ccc21)CC3CCl (stereo unspecified) | 0.0695 | – | 1.13 | 0.013 | – | 0.0177 | < 0.0109 | 0.0604 | 0.346 | 12.7 | – | – | 12.4 | < 0.01 | 0.0228 | 0.237 | – | 0.0914 |

Source: PubChem BioAssay (NCI)
